Measurements as given in patent US9834542B2, “LXR modulators” (BRISTOL-MYERS SQUIBB COMPANY, priority 2013, dated 2017).

Target: T1, LXRβ (Homo sapiens, UniProt P55055)
T1 construct: Co-transfection expression plasmids, comprising full-length LXRα (pCMX-h LXRα[…] or LXRβ (pCMX-hLXRβ)); expressed in transfected cells; host or cells: CV-1 African Green Monkey Kidney Cells
T1 sequence (P55055 1-460): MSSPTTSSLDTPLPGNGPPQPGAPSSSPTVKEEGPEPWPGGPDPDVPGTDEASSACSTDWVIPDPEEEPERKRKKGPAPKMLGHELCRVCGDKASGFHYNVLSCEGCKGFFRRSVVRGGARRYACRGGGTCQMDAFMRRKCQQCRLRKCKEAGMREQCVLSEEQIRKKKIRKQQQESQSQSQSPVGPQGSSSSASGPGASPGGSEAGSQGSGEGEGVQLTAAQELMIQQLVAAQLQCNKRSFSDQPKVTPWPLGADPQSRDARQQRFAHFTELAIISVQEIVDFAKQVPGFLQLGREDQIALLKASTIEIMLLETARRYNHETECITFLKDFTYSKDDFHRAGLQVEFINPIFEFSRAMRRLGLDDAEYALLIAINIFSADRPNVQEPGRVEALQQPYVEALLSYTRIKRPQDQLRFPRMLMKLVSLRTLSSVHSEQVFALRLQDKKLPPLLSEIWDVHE
T1 sequence (P19793 1-462 partner): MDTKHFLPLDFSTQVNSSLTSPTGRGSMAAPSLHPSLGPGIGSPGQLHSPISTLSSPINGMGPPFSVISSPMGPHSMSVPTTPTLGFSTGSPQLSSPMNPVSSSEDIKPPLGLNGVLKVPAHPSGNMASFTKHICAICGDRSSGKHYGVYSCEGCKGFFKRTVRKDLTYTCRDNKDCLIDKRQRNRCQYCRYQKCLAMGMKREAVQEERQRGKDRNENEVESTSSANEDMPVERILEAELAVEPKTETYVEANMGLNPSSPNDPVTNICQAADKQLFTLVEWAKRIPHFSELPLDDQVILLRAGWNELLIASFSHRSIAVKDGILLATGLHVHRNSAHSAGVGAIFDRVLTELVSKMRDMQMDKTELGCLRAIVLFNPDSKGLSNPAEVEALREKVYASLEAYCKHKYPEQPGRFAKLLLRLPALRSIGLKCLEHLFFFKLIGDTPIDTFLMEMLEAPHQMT
Experiment: Co-transfection assay (LXRE luciferase reporter), LXRβ
Format: cell-based
Details: for EC50: CV-1 cells transfected with pCMX-hLXRβ and LXREx1-Tk-Luciferase, 20 hours incubation; for Emax: LXRβ co-transfection, relative to high control 1-(2,4-difluorobenzyl)-2-oxo-6-(4-phenoxyphenyl)-4-(trifluoromethyl)-1,2-dihydropyridine-3-carbonitrile, read-out: % Efficacy
In short: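 Cell-based LXRβ agonism measured as LXRE-luciferase induction in transiently transfected CV-1 cells after 20 h treatment. Potency is the curve-fit EC50; efficacy is expressed as percent of a full-agonist control's maximal response.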

Compound	EC50 [nM]	Emax [%]
CCC(F)(F)c1cn(-c2ccc(-c3cc(F)c(CO)c(S(C)(=O)=O)c3)cc2-c2ocnc2-c2ccc(OC(F)(F)F)cc2)c(C)n1 [Example 363, {4′-[4-(1,1-difluoropropyl)-2-methyl-1H-imidazol-1-yl]-3-fluoro-5-(methylsulfonyl)-3′-(4-{4-[(trifluoromethyl)oxy]phenyl}-1,3-oxazol-5-yl)biphenyl-4-yl}methanol]	288	58
Cc1nc(-c2cc(-c3cccc(S(C)(=O)=O)c3)ccc2-n2cc(CO)nc2C)c(-c2ccc3c(c2)OC(F)(F)O3)o1 [Example 369, (1-(3-(5-(2,2-difluorobenzo[d][1,3]dioxol-5-yl)-2-methyloxazol-4-yl)-3′-(methylsulfonyl)biphenyl-4-yl)-2-methyl-1H-imidazol-4-yl)methanol]	1140	29
Cc1nc(C(F)(F)F)cn1-c1ccc(-c2cc(F)c(CO)c(S(C)(=O)=O)c2)c(Cl)c1-n1nncc1-c1ccc(Cl)cc1 [Example 102, {2′-chloro-3′-[5-(4-chlorophenyl)-1H-1,2,3-triazol-1-yl]-3-fluoro-5-(methylsulfonyl)-4′-[2-methyl-4-(trifluoromethyl)-1H-imidazol-1-yl]biphenyl-4-yl}methanol]	1940	57
CS(=O)(=O)c1cccc(-c2ccc(-n3cc(C(F)(F)F)nc3Cl)c(-n3nncc3-c3ccc(Cl)cc3)c2)c1 [Example 2, 5-(4-chlorophenyl)-1-{4-[2-chloro-4-(trifluoromethyl)-1H-imidazol-1-yl]-3′-(methylsulfonyl)biphenyl-3-yl}-1H-1,2,3-triazole]	680	80
Cc1nc(C(F)(F)F)cn1-c1ccc(-c2cccc(S(C)(=O)=O)c2)cc1-n1nncc1-c1ccc(OC(F)F)cc1 [Example 65, 5-{4-[(difluoromethyl)oxy]phenyl}-1-{3′-(methylsulfonyl)-4-[2-methyl-4-(trifluoromethyl)-1H-imidazol-1-yl]biphenyl-3-yl}-1H-1,2,3-triazole]	297	80
COc1cnc(-c2oc(C)nc2-c2cc(-c3cc(F)c(CO)c(S(C)(=O)=O)c3)ccc2-n2cc(C(F)(F)F)nc2C)cn1 [Example 413, (3-fluoro-3′-(5-(5-methoxypyrazin-2-yl)-2-methyloxazol-4-yl)-4′-(2-methyl-4-(trifluoromethyl)-1H-imidazol-1-yl)-5-(methylsulfonyl)biphenyl-4-yl)methanol]	426	63
Cc1nc(-c2cc(-c3cccc(S(C)(=O)=O)c3)ccc2-n2cc(C(F)(F)F)nc2C)c(-c2cccnc2Cl)o1 [Example 552, 5-(2-chloropyridin-3-yl)-2-methyl-4-(4-(2-methyl-4-(trifluoromethyl)-1H-imidazol-1-yl)-3′-(methylsulfonyl)-[1,1′-biphenyl]-3-yl)oxazole]	913	82
Cc1nc(-c2cc(-c3cc(F)c(CO)c(S(C)(=O)=O)c3)ccc2-n2cc(C(F)(F)F)nc2C)c(-c2cccnc2C)o1 [Example 395, (3-fluoro-4′-(2-methyl-4-(trifluoromethyl)-1H-imidazol-1-yl)-3′-(2-methyl-5-(2-methylpyridin-3-yl)oxazol-4-yl)-5-(methylsulfonyl)biphenyl-4-yl)methanol]	1230	61
Cc1nc(-c2cc(-c3ccc(CO)c(S(C)(=O)=O)c3)ccc2-n2cc(C(F)(F)F)nc2C)c(-c2ccc(F)c(F)c2)o1 [Example 512, (3′-(5-(3,4-difluorophenyl)-2-methyloxazol-4-yl)-4′-(2-methyl-4-(trifluoromethyl)-1H-imidazol-1-yl)-3-(methylsulfonyl)biphenyl-4-yl)methanol]	136	71
Cc1cc(-c2cc(-c3cc(F)c(CO)c(S(C)(=O)=O)c3)ccc2-n2cc(C(F)(F)F)nc2C)n(-c2ccc(OC(F)F)cc2)n1 [Example 287, (3′-(1-(4-(difluoromethoxy)phenyl)-3-methyl-1H-pyrazol-5-yl)-3-fluoro-4′-(2-methyl-4-(trifluoromethyl)-1H-imidazol-1-yl)-5-(methylsulfonyl)biphenyl-4-yl)methanol]	26	80
Cc1nc(C(F)(F)F)cn1-c1ccc(-c2cccc(S(C)(=O)=O)c2)cc1-c1oc(CCN(C)C)nc1-c1ccc(OC(F)(F)F)cc1 [Example 628, N,N-dimethyl-2-(5-(4-(2-methyl-4-(trifluoromethyl)-1H-imidazol-1-yl)-3′-(methylsulfonyl)-[1,1′-biphenyl]-3-yl)-4-(4-(trifluoromethoxy)phenyl)oxazol-2-yl)ethanamine]	412	82

More lines, in order of falling EC50, values ahead:

EC50 [nM]	Emax [%]	Compound
337	86	CCC(F)(F)c1cn(-c2ccc(-c3cccc(S(C)(=O)=O)c3)cc2-n2nncc2-c2ccc(OC(F)(F)F)cc2)c(C)n1 [Example 184, 1-{4-[4-(1,1-difluoropropyl)-2-methyl-1H-imidazol-1-yl]-3′-(methylsulfonyl)biphenyl-3-yl}-5-{4-[(trifluoromethyl)oxy]phenyl}-1H-1,2,3-triazole]
127	61	Cc1nc(-c2cc(-c3cc(F)c(CO)c(S(C)(=O)=O)c3)ccc2-n2cc(C(F)(F)F)nc2C)c(-c2ccc(F)c(OC(F)F)c2)o1 [Example 461, (3′-(5-(3-(difluoromethoxy)-4-fluorophenyl)-2-methyloxazol-4-yl)-3-fluoro-4′-(2-methyl-4-(trifluoromethyl)-1H-imidazol-1-yl)-5-(methylsulfonyl)biphenyl-4-yl)methanol]
122	75	Cc1nc(C(F)(F)F)cn1-c1ccc(-c2cccc(S(C)(=O)=O)c2)cc1-c1ccnn1-c1ccc(OC(F)(F)F)cc1 [Example 289, 5-{3′-(methylsulfonyl)-4-[2-methyl-4-(trifluoromethyl)-1H-imidazol-1-yl]biphenyl-3-yl}-1-{4-[(trifluoromethyl)oxy]phenyl}-1H-pyrazole]
114	97	Cc1nc(C(F)(F)F)cn1-c1ccc(-c2cccc(S(C)(=O)=O)c2)cc1-c1ccnn1-c1ccc2c(c1)OC(F)(F)O2 [Example 293, 1-(2,2-difluorobenzo[d][1,3]dioxol-5-yl)-5-(4-(2-methyl-4-(trifluoromethyl)-1H-imidazol-1-yl)-3′-(methylsulfonyl)biphenyl-3-yl)-1H-pyrazole]
103	77	Cc1ccc(C(C)c2cnnn2-c2cc(-c3cc(Cl)c(CO)c(S(C)(=O)=O)c3)ccc2-n2cc(C(F)(F)F)nc2C)cc1 (centres unmarked) [Example 110, (3-chloro-3′-{5-[1-(4-methylphenyl)ethyl]-1H-1,2,3-triazol-1-yl}-5-(methylsulfonyl)-4′-[2-methyl-4-(trifluoromethyl)-1H-imidazol-1-yl]biphenyl-4-yl)methanol]
64	56	Cc1nc(-c2cc(-c3cc(F)c(CO)c(S(C)(=O)=O)c3)ccc2-n2cc(C(F)(F)F)nc2C)c(-c2ccc(OC(F)F)c(OC(F)F)c2)o1 [Example 393, (3′-(5-(3,4-bis(difluoromethoxy)phenyl)-2-methyloxazol-4-yl)-3-fluoro-4′-(2-methyl-4-(trifluoromethyl)-1H-imidazol-1-yl)-5-(methylsulfonyl)biphenyl-4-yl)methanol]
49	24	Cc1nc(-c2cc(-c3cc(F)c(CO)c(S(C)(=O)=O)c3)ccc2-n2cc(C(F)(F)F)nc2C)c(-c2cccn(C(C)C)c2=O)o1 [Example 378, 3-(4-(3′-fluoro-4′-(hydroxymethyl)-4-(2-methyl-4-(trifluoromethyl)-1H-imidazol-1-yl)-5′-(methylsulfonyl)biphenyl-3-yl)-2-methyloxazol-5-yl)-1-isopropylpyridin-2(1H)-one]
46	92	Cc1nc(-c2ccc(OC(F)(F)F)cc2)c(-c2cc(-c3ccc(CO)c(S(C)(=O)=O)c3)ccc2-n2cc(C(F)(F)F)nc2C)o1 [Example 607, (3′-(2-methyl-4-(4-(trifluoromethoxy)phenyl)oxazol-5-yl)-4′-(2-methyl-4-(trifluoromethyl)-1H-imidazol-1-yl)-3-(methylsulfonyl)-[1,1′-biphenyl]-4-yl)methanol]
